# Measured values: publication PMC8012336, “An automated and high-throughput-screening compatible pluripotent stem cell-based test platform for developmental and reproductive toxicity assessment of small molecule compounds” (Cell Biology and Toxicology, 2020)
# What was measured:
# mESC-D3 [1] = test: Manual CellTiter-Glo luminescent cell viability assay (7 d or 5 d); type: cell-based, mouse; conditions: in brackets the two individual experiments
# Procedure: (§1) 96-well cell culture plates were coated with gelatin (0.1%) before plating mESC-D3. All peripheral wells of the assay plate were filled with 200 μl growth media. In order to assess compound toxicity on mESC-D3 and NIH/3T3 cells, cell suspensions of NIH/3T3, and mESC-D3 were prepared in growth media (1 × 10^4 cells/ml) and were transferred to all remaining wells (50 μl/well). A 7-point dilution series in growth media was prepared for each test compound and was transferred to the assay plate 2 h after cell seeding (150 μl/well). Afterward, the cells were incubated in a humidified atmosphere at 37 °C and 5% CO2. Three and 5 days after seeding the cell supernatant was replaced by freshly prepared compound solution (200 μl/well). […] The assay plate was placed on a shaker for 1 min and after another 10 min incubation at room temperature in the dark the luminescence signal was detected on a plate reader.
# (§2) Toxicity data from the MTT and CellTiter-Glo Assay was normalized against the vehicle control (100% viability) and plotted against the logarithmic compound concentration.
# NIH/3T3 [2] = test: as above; type: cell-based, mouse; conditions: in brackets the two individual experiments
# Procedure: as §1, §2
# mESC-D3 [3] = test: Automated CellTiter-Glo luminescent cell viability (cytotoxicity) assay, 5 d
# Procedure: (§3) The CellTiter-Glo® luminescent cell viability assay (Promega, Cat. No. G7573) was automated in 96-well format on the lab automation platform Fluent® (Tecan, Männedorf, Switzerland). The procedure allowed the testing of six compounds in mESC-D3 and NIH/3T3 cells in parallel. On the first day, PBS was dispensed into the peripheral wells of the assay plates (200 μl/well) using the Multiple Channel Arm (MCA). Mouse ES-D3 and NIH/3T3 cells were plated (50 μl/well, 1 × 10^4 cells/ml)) using the Flexible Channel Arm (FCA) and transported into the Cytomat™ 10 (Thermo Fisher Scientific) for incubation using the Robotic Gripper Arm (RGA). A 7-point dilution series of the test compounds and control solutions were prepared in PBS or DMSO (Carl Roth, Cat. No. HN47.1) under the laminar flow, transferred to a 96-well 0.5-ml Masterblock plate (Greiner bio-one, Cat. No. 786261) and placed on the worktable. On the Fluent the compounds were transferred to a 96-well 2-ml Masterblock plate (Greiner bio-one, Cat. No. 780271) and further diluted in growth media using the FCA. Two hours after cell plating compounds and controls were transferred to the assay plate with the FCA (150 μl/well) and transported back in the Cytomat 10. On day three of the assay, the media was exchanged using the MCA: old media was aspirated and dispensed into a 96-deep-well plate (“waste”), freshly prepared compound, and control solution was dispensed into the assay plate. After two more days of incubation, the cell viability was determined using the CellTiter-Glo assay. The assay plates were transported from the Cytomat 10 to the Carousel (Tecan) to adapt to room temperature. After 25 min the cell supernatant was removed partially (80 μl/well) and CellTiter-Glo reagent was dispensed (50 μl/well). The assay plate was placed on a shaker for 1 min and afterward incubated 25 min in the Carousel before the Luminescence signal was detected on the Infinite M1000 Pro plate reader (Tecan).
# as §2
# NIH/3T3 [4] = test: as above
# Procedure: as §3, §2
# mESC-D3 [5] = test: Manual MTT cell viability assay, 7 d; type: cell-based, mouse
# Procedure: (§4) The MTT cell viability assay was performed as described (Seiler and Spielmann [2011]) with modifications. In brief, 96-well cell culture plates were coated with gelatin (0.1%) before plating mESC-D3. All peripheral wells of the assay plate were filled with 200 μl growth media (“blank”). Afterward, NIH/3T3 and mESC-D3 were plated in growth media (1 × 10^4 cells/ml, 50 μl/well). […] Vehicle (PBS) and positive control (5-fluorouracil) wells were also included on all assay plates. Three and 5 days after seeding the cell supernatant was replaced by freshly prepared compound solution (200 μl/well). Seven days after seeding the cell viability was detected. Therefore, the cell supernatant was aspirated from all wells, MTT solution (5 mg/ml) was added (20 μl/well) and the assay plate was incubated for 2 h at 37 °C and 5% CO2 in a humidified atmosphere. Afterward, all liquid was removed from the wells and MTT desorb solution (0.7% SDS in 2-propanol (Carl Roth, Cat. No. 9866.5), pre-warmed to 37 °C) was dispensed (130 μl/well). The assay plate was placed on a shaker for 15 min. Remaining precipitates were suspended by pipetting up and down with a multichannel pipette before measuring the absorption at 570 nm on a microtiter plate reader using 630 nm as a reference wavelength.
# as §2
# NIH/3T3 [6] = test: Manual MTT cell viability assay, 7 d; type: cell-based, mouse
# Procedure: as §4, §2
# [7] = Manual CellTiter-Glo luminescent cell viability assay (7 d or 5 d); type: cell-based, mouse; conditions: mouse, in brackets the two individual experiments
# Procedure: as §1, §2
# [8] = Automated CellTiter-Glo luminescent cell viability (cytotoxicity) assay, 5 d; conditions: mouse
# Procedure: as §3, §2
# [9] = Manual MTT cell viability assay, 7 d; type: cell-based, mouse; conditions: mouse, manual, in brackets the two individual experiments
# Procedure: as §4, §2
SMILES,"Cytotoxicity assay CTG, 5 d IC50 mESC-D3 (mESC-D3 [1]; 5 d)","Cytotoxicity assay CTG, 7 d IC50 mESC-D3 (mESC-D3 [1]; 7 d)","Cytotoxicity assay CTG, 5 d IC50 NIH/3T3 (NIH/3T3 [2]; 5 d)","Cytotoxicity assay CTG, 7 d IC50 NIH/ 3T3 (NIH/3T3 [2]; 7 d)","Cytotoxicity assay CTG, 5 d IC50 mESC-D3 (mESC-D3 [3])","Cytotoxicity assay CTG, 5 d IC50 NIH/3T3 (NIH/3T3 [4])","Cytotoxicity assay MTT, 7 d IC50 mESC-D3 (mESC-D3 [5])","Cytotoxicity assay MTT, 7 d IC50 NIH/3T3 (NIH/3T3 [6])","IC50 at 5 d ([7]; NIH/3T3 cells, read-out: Cytotoxicity assay CTG, 5 d IC50 NIH/3T3) [µg/mL]","IC50 at 7 d ([7]; NIH/3T3 cells, read-out: Cytotoxicity assay CTG, 7 d IC50 NIH/ 3T3) [µg/mL]","IC50 at 5 d ([7]; mESC-D3 cells, read-out: Cytotoxicity assay CTG, 5 d IC50 mESC-D3) [µg/mL]","IC50 at 7 d ([7]; mESC-D3 cells, read-out: Cytotoxicity assay CTG, 7 d IC50 mESC-D3) [µg/mL]",IC50 at 5 d ([8]; NIH/3T3 cells) [µg/mL],IC50 at 5 d ([8]; mESC-D3 cells (mouse embryonic stem cells)) [µg/mL],"IC50 at 7 d ([9]; NIH/3T3 cells, read-out: Cytotoxicity assay MTT, 7 d IC50 NIH/3T3) [µg/mL]","IC50 at 7 d ([9]; mESC-D3 cells, read-out: Cytotoxicity assay MTT, 7 d IC50 mESC-D3) [µg/mL]"
"NC(=O)NO [Hydroxyurea, hydroxyurea]",3.19 (4.12; 2.26) µg/ml,2.37 (2.28; 2.46) µg/ml,3.12 (> 10; 3.12) µg/ml,4.83 (> 10; 4.83) µg/ml,2.28 (1.69; 2.87) μg/ml,4.01 (3.97; 4.06) μg/ml,2.11 (2.08; 2.15) µg/ml,2.17 (1.81; 2.53) µg/ml,–,–,–,–,–,–,–,–
"O=C1NS(=O)(=O)c2ccccc21 [Saccharin, saccharin]",–,–,–,–,–,–,–,–,> 1000,> 1000,464,> 1000,> 1000,393,> 1000,> 1000
